Data set [1] deals with trypomastigote forms of T. cruzi (Dm28c-Luc). Nature of the data set: Trypanocidal activity against trypomastigotes (luciferase luminescence, 24 h). In kind it is cell-based, Trypanosoma cruzi. The conditions noted are these: for IC50 / IC90: Trypanosoma cruzi, Dm28c-Luc, 24 h. How it is done: (§1) A drug screen was carried out with Trypanosoma cruzi clone Dm28c genetically modified to express luciferase (Dm28c-luc), kindly provided by Dr. Cristina Henriques. The genetically modified T. cruzi clone Dm28c (Dm28c-Luc) has the firefly luciferase gene integrated into the genome, stably expressing the luminescent enzyme. The bioluminescent signal, proportional to the number of parasites, is produced by adding a D-luciferin substrate. Trypomastigotes were harvested from supernatants of VERO cell cultures, infected at a ratio of 10:1 parasite/host cells, 4 days post-infection (4 dpi). Parasites were used for phenotypic drug screening procedures. Luminescent parasites are a reliable and sensitive tool that allows precise quantification of parasite load. The use of genetically modified organisms was approved under license CQB 105/99.
All triazole analogs were analyzed for their biological activity against trypomastigote and intracellular amastigote forms of T. cruzi (Dm28c-Luc). Trypomastigotes (1.0 × 10^6 parasites/well) were incubated for 24 h at 37 °C with triazole derivatives and Bz at concentrations ranging from 0.04 to 100 µM. Luciferin (300 µg/mL), a luciferase substrate, was added to parasite suspensions to evaluate trypomastigotes viability. The luminescent signal was measured using a Glomax microplate reader. A maximal DMSO concentration (0.1%) was used as the negative control. The inhibitory concentration 50 (IC50) and 90 (IC90) against T. cruzi, which reduces the number of parasites by 50% and 90%, respectively, was calculated using linear regression. The selectivity index (SI), a ratio that measures the window between toxicity in mammalian cells and anti-T. cruzi activity (SI = CC50/IC50), was also determined.

In data set [2] the test system is intracellular amastigote forms of T. cruzi (Dm28c-Luc). Nature of the data set: Activity against intracellular amastigotes in infected VERO cells (72 h). It is filed as cell-based, Trypanosoma cruzi. The conditions noted are these: for IC50 / IC90: Trypanosoma cruzi, infected VERO cells, 72 h, mean ± SD; for IC50: read-out: Trypanocidal Activity Intracellular Amastigotes IC50; for Intracellular Amastigotes SI: SI = CC50 of VERO cells/IC50 of intracellular amastigotes; for IC90: read-out: Trypanocidal Activity Intracellular Amastigotes IC90. How it is done:
as §1
Activity against intracellular amastigotes was determined in cultures of VERO cells infected by T. cruzi (24 h), as previously described. Briefly, infected cultures were treated for 72 h at 37 °C with different concentrations of triazole derivatives (0.04–100 µM). Then, the culture supernatant was removed, and the viability of the intracellular parasites was evaluated after adding luciferin (300 µg/mL) to the cell monolayer followed by reading using the microplate reader. Anti-T. cruzi activity (IC50 and IC90) and SI values were determined. All experimental assays were performed at least 3 times in duplicate.

The nature of data set [3]: Cytotoxicity on VERO cell monolayers (CellTiter Glo, 72 h). The conditions noted are these: African green monkey, VERO cell monolayers, ATP level, read-out: Cytotoxicity VERO Cells CC50. It is filed as cell-based. How it is done:
VERO cells (Rio de Janeiro Cell Bank code 0245) were cultivated in RPMI 1640 medium supplemented with 10% fetal bovine serum (FBS) at 37 °C in a humidified atmosphere of 5% CO2. Confluent monolayers were dissociated with trypsin-EDTA solution (0.025%), and isolated cells were seeded on culture plates or flasks, depending on the experimental assay. The VERO cell cultures were used in cytotoxicity and phenotypic screening assays and for obtaining culture-derived trypomastigotes. The toxic effect of the triazole series was evaluated on VERO cell monolayers. After seeding for 24 hours, VERO cells were treated for 72 h at 37 °C with the 1,2,3-triazole derivatives and Bz, the reference drug, with a range of concentration from 15.62 to 500 µM. Controls were performed with a non-toxic concentration of dimethyl sulfoxide (DMSO; ≤0.1%) used in the experimental assays. Cell viability was determined by measuring ATP level using a CellTiter Glo kit. The luminescence read was performed using a Glomax microplate reader (Promega Corporation, Madison, WI, EUA). The cytotoxicity concentration 50 (CC50), the drug concentration that reduces cell viability by 50%, was calculated using linear regression. […] Cultures were exposed for 72 h to compound concentrations up to 500 µM, following the protocol mentioned above. At least 3 independent assays were performed in duplicate.
A general note: Cellular ATP, detected with luciferase, serves as a proxy for viable cell number.

The subject of data set [4] is T. cruzi (Dm28c-Luc)-infected VERO cells. Nature of the data set: Short-term washout assay (3 days treatment, 3 days without compound). The conditions noted are these: 100 µM. In kind it is cell-based, Trypanosoma cruzi. As to the method:
(§2) A washout assay was performed to evaluate the capacity of the promising candidates to eliminate all parasites. Thus, VERO cells, seeded in 96-well plates at a density of 1.5 × 10^4 cells/well, were infected with T. cruzi (Dm28c-Luc) at a 10:1 parasite–host cell ratio (24 h). Two treatment schedules were performed: 3 days with 30, 50, and 100 µM concentrations and 10 days with 30 and 60 times the IC50 concentrations. After treatment, the cultures were washed with PBS and kept for the same period in RPMI 1640 medium supplemented with 10% FBS without compound pressure. The culture medium was changed every 3 or 4 days during the time course, and the supernatant was harvested for luminescence reading after luciferin (300 µg/mL) addition. At the endpoint, the monolayers were also evaluated for parasite load. The luminescent signal was read using a Glomax reader. Bz (100 µM) and DMSO (≤1%) were used as positive and negative controls, respectively.

Data set [5] has the same test system. Nature of the data set: Long-term washout assay (10 days treatment, 10 days without compound). It is filed as cell-based, Trypanosoma cruzi. The conditions noted are these: 10 days treatment (30 or 60 times IC50; Bz 100 µM) + 10 days without compound. As to the method:
as §2

The test system of data set [6] is VERO cells infected with Silvio X10/7. Further details: method as in PMID 30001347. The conditions noted are these: cited from earlier work.
The mark [7] stands for this setting: mean ± SD, read-out: Trypanocidal Activity Trypomastigotes IC50.

Like-named read-outs stand apart in the source and are kept apart here. Where only a bound is given, the exact number is not on record here.

One may read the CC50 as the concentration that lowers cell viability or growth by half. The IC90 is the concentration at which the effect reaches the 90% level. As a reminder, the melting point is the temperature of the solid-liquid transition.

In the case of `Cc1ccccc1-n1cc(COC(=O)c2ccccc2)nn1` [Triazole 1m, (1-(o-Tolyl)-1H-1,2,3-triazole-4-yl)methyl benzoate], the IC50 in data set [1] (setting [7]) and in data set [2] was over 100 µM throughout. For the same compound, in data set [3], the CC50 at 72 h was over 500 µM.

For the compound `COc1ccc(-n2cc(CO)nn2)cc1` [Triazole 1n, (1-(4-Methoxyphenyl)-1H-1,2,3-triazole-4-yl)methanol], the IC50 in data set [1] (setting [7]) and in data set [2] was over 100 µM throughout. The CC50 at 72 h in data set [3] was over 500 µM.

`Clc1ccc(-n2cc(-c3ccccc3)nn2)cc1` [Triazole 1b, 1-(4-Chlorophenyl)-4-phenyl-1H-1,2,3-triazole] had a 90% effect concentration (IC90) in data set [1] (mean ± SD) of over 100 µM. The IC50 in data set [1] (setting [7]) and in data set [2] was over 100 µM throughout. The CC50 at 72 h in data set [3] is over 500 µM.

`O=C(OCc1cn(-c2ccccc2Cl)nn1)c1ccccc1` [Triazole 1l, (1-(2-Chlorophenyl)-1H-1,2,3-triazole-4-yl)methyl benzoate]: in data set [1] (SI = CC50 of VERO cells/IC50 of trypomastigotes), the “Trypomastigotes SI” value came to 2.94. The compound further displayed an IC90 in data set [1] (mean ± SD) of over 100 µM. For the same compound, the IC50 in data set [1] (setting [7]) was 80.4 ± 3.56 µM. Besides, in data set [2], the “Intracellular Amastigotes SI” value was 3.03, the IC50 turned out to be 77.9 ± 2 µM and the IC90 is over 100 µM. Further, the CC50 at 72 h in data set [3] turned out to be 236 ± 17.9 µM.

`Cc1ccccc1-n1cc(C2(O)CCCCC2)nn1` [Triazole 1k, 1-(1-(o-Tolyl)-1H-1,2,3-triazole-4-yl)cyclohexan-1-ol]: the melting point was 201 to 203 °C. Besides, the IC50 in data set [1] (setting [7]) was over 100 µM. Moreover, the IC50 in data set [2] is over 100 µM. In data set [3], the CC50 at 72 h is over 500 µM.

In data set [1] (mean ± SD), `Brc1ccc(-n2cc(-c3ccccc3)nn2)cc1` [Triazole 1c, 1-(4-Bromophenyl)-4-phenyl-1H-1,2,3-triazole] registered an IC90 of over 100 µM. Further, the IC50 in data set [1] (setting [7]) and in data set [2] was over 100 µM throughout. The cytotoxic concentration (CC50) at 72 h in data set [3] was over 500 µM.

Consider `c1ccc(Cn2cc(-c3ccccc3)nn2)cc1` [Triazole 1e, 1-Benzyl-4-phenyl-1H-1,2,3-triazole], for which, in data set [1] (mean ± SD), the IC90 is over 100 µM. The IC50 in data set [1] (setting [7]) is over 100 µM. Besides, in data set [2], the “Intracellular Amastigotes SI” value is over 6 and the IC50 was determined as 83.2 ± 2.27 µM. Further, in data set [3], the CC50 at 72 h was over 500 µM.

For `O=C(Cn1ccnc1[N+](=O)[O-])NCc1ccccc1` [Bz, benznidazole, reference compound], the IC90 is over 100 µM in data set [1] (mean ± SD) and 21.7 ± 2.37 µM in data set [2]. In addition, the figures for the IC50 in data set [1] (setting [7]), in data set [1] (read-out: pIC50 against trypomastigotes (converted)) and in data set [2] were 22.8 ± 4.12 µM, 22.9 µM and 4.67 ± 0.22 µM, respectively. Besides, the “Intracellular Amastigotes SI” value in data set [2] is given as over 107. In addition, in data set [3], the CC50 at 72 h was over 500 µM. In addition, the “effect on parasite load / infection progression” value in data set [4] is listed as “potentially inhibited the infection progression”. Also, the “infection reactivation / sterile cure” value in data set [5] is recorded as “failed to induce a sterile cure”. Besides, the relapse entry in data set [6] (12.5 to 50 times EC50 for 8 days) is recorded as “did not prevent relapse”. Also, the recrudescence result in data set [6] (16 days of treatment with 25 to 50 times EC50, followed for 60 days) is on record as “lack of recrudescence”.

`Cc1ccccc1-n1cc(C(C)(C)O)nn1` [Triazole 1a, 2-(1-(o-Tolyl)-1H-1,2,3-triazole-4-yl)propan-2-ol] came in with an IC90 in data set [1] (mean ± SD) of over 100 µM. For the same compound, the IC50 in data set [1] (setting [7]) and in data set [2] was over 100 µM in each case. Also, the CC50 at 72 h in data set [3] is over 500 µM.

As for `OC1(c2cn(-c3ccccc3)nn2)CCCCC1` [Triazole 1h, 1-(1-Phenyl-1H-1,2,3-triazole-4-yl)cyclohexan-1-ol], the IC50 in data set [1] (setting [7]) and in data set [2] was over 100 µM each time. The CC50 at 72 h in data set [3] was over 500 µM.

In the case of `O=[N+]([O-])c1ccc(-n2cc(C3(O)CCCCC3)nn2)cc1` [Triazole 1i, 1-(1-(4-Nitrophenyl)-1H-1,2,3-triazole-4-yl)cyclohexan-1-ol], the IC50 in data set [1] (setting [7]) and in data set [2] was over 100 µM each time. Moreover, in data set [3], the CC50 at 72 h is over 500 µM.

Regarding `COc1ccc(-n2cc(C3(O)CCCCC3)nn2)cc1` [Triazole 1j, 1-(1-(4-Methoxyphenyl)-1H-1,2,3-triazole-4-yl)cyclohexan-1-ol], the IC50 in data set [1] (setting [7]) and in data set [2] was over 100 µM each time. The CC50 at 72 h in data set [3] was over 500 µM.

Source of the values: publication PMC10525445, “Antitrypanosomal Activity of 1,2,3-Triazole-Based Hybrids Evaluated Using In Vitro Preclinical Translational Models” (Biology, 2023).
